Laboratory results published in patent publication US20230085307A1, “PYRIDAZINONE COMPOUND AND HERBICIDE” (NISSAN CHEMICAL CORPORATION, priority 2019, published 2023).

Each compound was assayed on late watergrass (assay: Test Example 1: herbicidal activity, application before weed generation under submerged conditions (Table 16, symbol A)). Conditions: 320 g/ha applied herbicide.
Assay type: in vivo, late watergrass (Echinochloa oryzicola)
Procedure, shortened: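 Emulsion formulation, water-diluted to set dose, was put onto the flooded surface (4 cm depth, alluvial soil) the same day weeds were sown and 2.5-leaf rice transplanted. After 3 weeks at 25-30 °C under glass, each species was rated 0 (≤5% kill) to 5 (≥90% kill).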

Row | Compound | Herbicidal effect on A: late watergrass (grade 0-5)
1 | CCOc1cc(F)ccc1-c1sc2ccc(F)cc2c1-c1c(O)c(C)nn(C)c1=O [2-084] | 1 (Herbicidal rate of 5% or more and less than 20%)
2 | CCCC(=O)Oc1c(C)nn(C)c(=O)c1-c1c(-c2ccc(F)cc2OCC)sc2ccc(F)cc12 [2-085] | 4 (Herbicidal rate of 70% or more and less than 90%)
3 | Cc1nn(C)c(=O)c(-c2c(-c3ccc4c(c3)OCCO4)sc3ccc(F)cc23)c1O [2-092] | 2 (Herbicidal rate of 20% or more and less than 40%)

The compounds below were run on late watergrass (assay: Test Example 2: herbicidal activity, application during weed generation under submerged conditions (Table 17, symbol A)). Conditions: AAH 320 g/ha; application during weed generation, submerged conditions.
Assay type: in vivo, late watergrass (Echinochloa oryzicola)
Procedure, shortened: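 Herbicide emulsion, diluted with water to the chosen amount, is applied onto 4 cm floodwater over alluvial soil where the weeds were co-sown and raised at 25–30° C. Application timing: 1–2 leaves. Assessment: three weeks afterwards.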

Row | Compound | herbicidal effect rating, A: late watergrass
4 | CCOc1cc(F)ccc1-c1sc2ccc(F)cc2c1-c1c(O)c(C)nn(C)c1=O [2-084] | 2 (Herbicidal rate of 20% or more and less than 40%)
5 | CCCC(=O)Oc1c(C)nn(C)c(=O)c1-c1c(-c2ccc(F)cc2OCC)sc2ccc(F)cc12 [2-085] | 2 (Herbicidal rate of 20% or more and less than 40%)
6 | Cc1nn(C)c(=O)c(-c2c(-c3ccc4c(c3)OCCO4)sc3ccc(F)cc23)c1O [2-092] | 0 (Herbicidal rate of 5% or less (almost no effect))

The compounds below were run on barnyard grass (assay: Test Example 3: herbicidal effect by foliage application, Wagner pot (Table 18, symbol H)). Conditions: 320 g/ha.
Assay type: in vivo, barnyard grass (Echinochloa crus-galli)
Procedure, shortened: (§1)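 Plants were sown in alluvial soil held under 0.1–0.5 cm standing water and grown 14 days in a greenhouse at 25–30 °C. An emulsifiable formulation, water-diluted to the set dose, was then sprayed onto the foliage, and effects were scored three weeks later using previously defined criteria.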

Row | Compound | herbicidal effect on H (barnyard grass), rating 0-5
7 | CCOc1cc(F)ccc1-c1sc2ccc(F)cc2c1-c1c(O)c(C)nn(C)c1=O [2-084] | 5 (Herbicidal rate of 90% or more (almost completely withered))
8 | CCCC(=O)Oc1c(C)nn(C)c(=O)c1-c1c(-c2ccc(F)cc2OCC)sc2ccc(F)cc12 [2-085] | 5 (Herbicidal rate of 90% or more (almost completely withered))
9 | Cc1nn(C)c(=O)c(-c2c(-c3ccc4c(c3)OCCO4)sc3ccc(F)cc23)c1O [2-092] | 5 (Herbicidal rate of 90% or more (almost completely withered))

Each compound was assayed on Chinese sprangletop (assay: Test Example 3: herbicidal effect by foliage application, Wagner pot (Table 18, symbol D)). Conditions: 320 g/ha.
Assay type: in vivo, chinese sprangletop (Leptochloa chinensis)
Procedure, shortened: as §1

Row | Compound | herbicidal effect on D (Chinese sprangletop), rating 0-5
10 | CCOc1cc(F)ccc1-c1sc2ccc(F)cc2c1-c1c(O)c(C)nn(C)c1=O [2-084] | 4 (Herbicidal rate of 70% or more and less than 90%)
11 | CCCC(=O)Oc1c(C)nn(C)c(=O)c1-c1c(-c2ccc(F)cc2OCC)sc2ccc(F)cc12 [2-085] | 0 (Herbicidal rate of 5% or less (almost no effect))
12 | Cc1nn(C)c(=O)c(-c2c(-c3ccc4c(c3)OCCO4)sc3ccc(F)cc23)c1O [2-092] | 4 (Herbicidal rate of 70% or more and less than 90%)

Each compound was assayed on southern crabgrass (assay: Test Example 4: herbicidal effect by soil treatment (Table 19, symbol F)). Conditions: 320 g/ha.
Assay type: in vivo, southern crabgrass (Digitaria ciliaris)
Procedure, shortened: (§2)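 Pre-emergence style soil spray: seeds under ~1.5 cm sterilized diluvial soil received a uniform coat of emulsion diluted to the predetermined herbicide amount. Greenhouse 25–30° C; readout at week three on previously defined criteria.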

Row | Compound | herbicidal effect rating, F: southern crabgrass
13 | CCOc1cc(F)ccc1-c1sc2ccc(F)cc2c1-c1c(O)c(C)nn(C)c1=O [2-084] | 5 (Herbicidal rate of 90% or more (almost completely withered))
14 | CCCC(=O)Oc1c(C)nn(C)c(=O)c1-c1c(-c2ccc(F)cc2OCC)sc2ccc(F)cc12 [2-085] | 4 (Herbicidal rate of 70% or more and less than 90%)
15 | Cc1nn(C)c(=O)c(-c2c(-c3ccc4c(c3)OCCO4)sc3ccc(F)cc23)c1O [2-092] | 2 (Herbicidal rate of 20% or more and less than 40%)

The compounds below were run on blackgrass (assay: Test Example 4: herbicidal effect by soil treatment (Table 19, symbol J)). Conditions: 320 g/ha.
Assay type: in vivo, blackgrass (Alopecurus myosuroides)
Procedure, shortened: as §2

Row | Compound | herbicidal effect rating, J: blackgrass
16 | CCOc1cc(F)ccc1-c1sc2ccc(F)cc2c1-c1c(O)c(C)nn(C)c1=O [2-084] | 2 (Herbicidal rate of 20% or more and less than 40%)
17 | CCCC(=O)Oc1c(C)nn(C)c(=O)c1-c1c(-c2ccc(F)cc2OCC)sc2ccc(F)cc12 [2-085] | 0 (Herbicidal rate of 5% or less (almost no effect))
18 | Cc1nn(C)c(=O)c(-c2c(-c3ccc4c(c3)OCCO4)sc3ccc(F)cc23)c1O [2-092] | 0 (Herbicidal rate of 5% or less (almost no effect))

The compounds below were run on Italian ryegrass (assay: Test Example 4: herbicidal effect by soil treatment (Table 19, symbol K)). Conditions: 320 g/ha.
Assay type: in vivo, Italian ryegrass (Lolium multiflorum)
Procedure, shortened: as §2

Row | Compound | herbicidal effect rating, K: Italian ryegrass
19 | CCOc1cc(F)ccc1-c1sc2ccc(F)cc2c1-c1c(O)c(C)nn(C)c1=O [2-084] | 3 (Herbicidal rate of 40% or more and less than 70%)
20 | CCCC(=O)Oc1c(C)nn(C)c(=O)c1-c1c(-c2ccc(F)cc2OCC)sc2ccc(F)cc12 [2-085] | 0 (Herbicidal rate of 5% or less (almost no effect))
21 | Cc1nn(C)c(=O)c(-c2c(-c3ccc4c(c3)OCCO4)sc3ccc(F)cc23)c1O [2-092] | 1 (Herbicidal rate of 5% or more and less than 20%)

These compounds were tested on windgrass (assay: Test Example 4: herbicidal effect by soil treatment (Table 19, symbol L)). Conditions: 320 g/ha.
Assay type: in vivo, windgrass (Apera spica-venti)
Procedure, shortened: as §2

Row | Compound | herbicidal effect rating, L: windgrass
22 | CCOc1cc(F)ccc1-c1sc2ccc(F)cc2c1-c1c(O)c(C)nn(C)c1=O [2-084] | 1 (Herbicidal rate of 5% or more and less than 20%)
23 | CCCC(=O)Oc1c(C)nn(C)c(=O)c1-c1c(-c2ccc(F)cc2OCC)sc2ccc(F)cc12 [2-085] | 0 (Herbicidal rate of 5% or less (almost no effect))
24 | Cc1nn(C)c(=O)c(-c2c(-c3ccc4c(c3)OCCO4)sc3ccc(F)cc23)c1O [2-092] | 0 (Herbicidal rate of 5% or less (almost no effect))

Each compound was assayed on velvetleaf (assay: Test Example 4: herbicidal effect by soil treatment (Table 19, symbol M)). Conditions: 320 g/ha.
Assay type: in vivo, velvetleaf (Abutilon theophrasti)
Procedure, shortened: as §2

Row | Compound | herbicidal effect rating, M: velvetleaf
25 | CCOc1cc(F)ccc1-c1sc2ccc(F)cc2c1-c1c(O)c(C)nn(C)c1=O [2-084] | 3 (Herbicidal rate of 40% or more and less than 70%)
26 | CCCC(=O)Oc1c(C)nn(C)c(=O)c1-c1c(-c2ccc(F)cc2OCC)sc2ccc(F)cc12 [2-085] | 0 (Herbicidal rate of 5% or less (almost no effect))
27 | Cc1nn(C)c(=O)c(-c2c(-c3ccc4c(c3)OCCO4)sc3ccc(F)cc23)c1O [2-092] | 5 (Herbicidal rate of 90% or more (almost completely withered))

Each compound was assayed on lambsquarters (assay: Test Example 4: herbicidal effect by soil treatment (Table 19, symbol O)). Conditions: 320 g/ha.
Assay type: in vivo, lambsquarters (Chenopodium album)
Procedure, shortened: as §2

Row | Compound | herbicidal effect rating, O: lambsquarters
28 | CCOc1cc(F)ccc1-c1sc2ccc(F)cc2c1-c1c(O)c(C)nn(C)c1=O [2-084] | 5 (Herbicidal rate of 90% or more (almost completely withered))
29 | CCCC(=O)Oc1c(C)nn(C)c(=O)c1-c1c(-c2ccc(F)cc2OCC)sc2ccc(F)cc12 [2-085] | 3 (Herbicidal rate of 40% or more and less than 70%)
30 | Cc1nn(C)c(=O)c(-c2c(-c3ccc4c(c3)OCCO4)sc3ccc(F)cc23)c1O [2-092] | 5 (Herbicidal rate of 90% or more (almost completely withered))

Each compound was assayed on persian speedwell (assay: Test Example 4: herbicidal effect by soil treatment (Table 19, symbol R)). Conditions: 320 g/ha.
Assay type: in vivo, Persian speedwell (Veronica persica)
Procedure, shortened: as §2

Row | Compound | herbicidal effect rating, R: persian speedwell
31 | CCOc1cc(F)ccc1-c1sc2ccc(F)cc2c1-c1c(O)c(C)nn(C)c1=O [2-084] | 5 (Herbicidal rate of 90% or more (almost completely withered))
32 | CCCC(=O)Oc1c(C)nn(C)c(=O)c1-c1c(-c2ccc(F)cc2OCC)sc2ccc(F)cc12 [2-085] | 3 (Herbicidal rate of 40% or more and less than 70%)
33 | Cc1nn(C)c(=O)c(-c2c(-c3ccc4c(c3)OCCO4)sc3ccc(F)cc23)c1O [2-092] | 5 (Herbicidal rate of 90% or more (almost completely withered))

The compounds below were run on blackgrass (assay: Test Example 5: herbicidal effect by foliage application, plastic box (Table 20, symbol J)). Conditions: foliage application, 320 g/ha, evaluated three weeks after application.
Assay type: in vivo, blackgrass (Alopecurus myosuroides)
Procedure, shortened: (§3)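 Plants were sown into sterilized diluvial soil under about 1.5 cm cover and kept in a greenhouse at 25° C. to 30° C. Fourteen days on, foliage received an even spray of the diluted emulsion. Herbicidal or crop effect was judged three weeks afterwards.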

Row | Compound | herbicidal effect on J: blackgrass
34 | CCOc1cc(F)ccc1-c1sc2ccc(F)cc2c1-c1c(O)c(C)nn(C)c1=O [2-084] | 5 (Herbicidal rate of 90% or more (almost completely withered))
35 | CCCC(=O)Oc1c(C)nn(C)c(=O)c1-c1c(-c2ccc(F)cc2OCC)sc2ccc(F)cc12 [2-085] | 1 (Herbicidal rate of 5% or more and less than 20%)
36 | Cc1nn(C)c(=O)c(-c2c(-c3ccc4c(c3)OCCO4)sc3ccc(F)cc23)c1O [2-092] | 4 (Herbicidal rate of 70% or more and less than 90%)

Each compound was assayed on Italian ryegrass (assay: Test Example 5: herbicidal effect by foliage application, plastic box (Table 20, symbol K)). Conditions: foliage application, 320 g/ha, evaluated three weeks after application.
Assay type: in vivo, Italian ryegrass (Lolium multiflorum)
Procedure, shortened: as §3

Row | Compound | herbicidal effect on K: Italian ryegrass
37 | CCOc1cc(F)ccc1-c1sc2ccc(F)cc2c1-c1c(O)c(C)nn(C)c1=O [2-084] | 3 (Herbicidal rate of 40% or more and less than 70%)
38 | CCCC(=O)Oc1c(C)nn(C)c(=O)c1-c1c(-c2ccc(F)cc2OCC)sc2ccc(F)cc12 [2-085] | 3 (Herbicidal rate of 40% or more and less than 70%)
39 | Cc1nn(C)c(=O)c(-c2c(-c3ccc4c(c3)OCCO4)sc3ccc(F)cc23)c1O [2-092] | 4 (Herbicidal rate of 70% or more and less than 90%)

The compounds below were run on velvetleaf (assay: Test Example 5: herbicidal effect by foliage application, plastic box (Table 20, symbol M)). Conditions: foliage application, 320 g/ha, evaluated three weeks after application.
Assay type: in vivo, velvetleaf (Abutilon theophrasti)
Procedure, shortened: as §3

Row | Compound | herbicidal effect on M: velvetleaf
40 | CCOc1cc(F)ccc1-c1sc2ccc(F)cc2c1-c1c(O)c(C)nn(C)c1=O [2-084] | 5 (Herbicidal rate of 90% or more (almost completely withered))
41 | CCCC(=O)Oc1c(C)nn(C)c(=O)c1-c1c(-c2ccc(F)cc2OCC)sc2ccc(F)cc12 [2-085] | 5 (Herbicidal rate of 90% or more (almost completely withered))
42 | Cc1nn(C)c(=O)c(-c2c(-c3ccc4c(c3)OCCO4)sc3ccc(F)cc23)c1O [2-092] | 5 (Herbicidal rate of 90% or more (almost completely withered))

These compounds were tested on redroot pigweed (assay: Test Example 5: herbicidal effect by foliage application, plastic box (Table 20, symbol N)). Conditions: foliage application, 320 g/ha, evaluated three weeks after application.
Assay type: in vivo, redroot pigweed (Amaranthus retroflexus)
Procedure, shortened: as §3

Row | Compound | herbicidal effect on N: redroot pigweed
43 | CCOc1cc(F)ccc1-c1sc2ccc(F)cc2c1-c1c(O)c(C)nn(C)c1=O [2-084] | 5 (Herbicidal rate of 90% or more (almost completely withered))
44 | CCCC(=O)Oc1c(C)nn(C)c(=O)c1-c1c(-c2ccc(F)cc2OCC)sc2ccc(F)cc12 [2-085] | 4 (Herbicidal rate of 70% or more and less than 90%)
45 | Cc1nn(C)c(=O)c(-c2c(-c3ccc4c(c3)OCCO4)sc3ccc(F)cc23)c1O [2-092] | 5 (Herbicidal rate of 90% or more (almost completely withered))

These compounds were tested on lambsquarters (assay: Test Example 5: herbicidal effect by foliage application, plastic box (Table 20, symbol O)). Conditions: foliage application, 320 g/ha, evaluated three weeks after application.
Assay type: in vivo, lambsquarters (Chenopodium album)
Procedure, shortened: as §3

Row | Compound | herbicidal effect on O: lambsquarters
46 | CCOc1cc(F)ccc1-c1sc2ccc(F)cc2c1-c1c(O)c(C)nn(C)c1=O [2-084] | 3 (Herbicidal rate of 40% or more and less than 70%)
47 | CCCC(=O)Oc1c(C)nn(C)c(=O)c1-c1c(-c2ccc(F)cc2OCC)sc2ccc(F)cc12 [2-085] | 3 (Herbicidal rate of 40% or more and less than 70%)
48 | Cc1nn(C)c(=O)c(-c2c(-c3ccc4c(c3)OCCO4)sc3ccc(F)cc23)c1O [2-092] | 5 (Herbicidal rate of 90% or more (almost completely withered))
